Assays:
[1] = Blood serum theophylline, fluorescence polarization assay (Example 1); format: in vivo, human
Description: Patients returned for reevaluation after two to four months of treatment. Measurements of blood serum theophylline were measured by a fluorescence polarization assay (Abbott, Chicago, IL). At this time, subjective changes in smell function were measured independently (compared to patient's memory of previous normal smell function monitored by use of the patients' daily measurements) using the scale from −100-0-+100 previously described (vs). After independently recording their subjective responses, smell function was measured for all four odors with DT, RT, ME and H determined without recourse to prior measurements.

[2] = asthma therapy; cited from earlier work
cAMP = assay: Parotid saliva cAMP, 96 plate spectrophotometric assay; format: in vivo, human
Description: Parotid saliva was collected from each patient by application of a Lashley cup over Stensen's duct with lingual stimulation by placement of concentrated lemon juice. Saliva was collected in plastic tubes and stored at −20° C. until assayed. cAMP and cGMP were measured in saliva by a sensitive 96 plate spectrophotometric assay (R&D Systems, Minneapolis, MN).
All patients were placed in a fixed design open label clinical trial with treatment with oral theophylline. Treatment consisted of fixed treatment periods of two-eight months with sequential doses of the drug at 200 mg, 400 mg and 600 mg. At termination of each of these intervals, patients returned to study site for reevaluation. At the end of each interval subjective responses to treatment were measured with a modification of the 0-100 scale previously used (vs). […] Theophylline was assayed by a fluorescence polarization assay (Abbott, Chicago, IL), as previously described.
Data for the cyclic nucleotides from these 31 patients was not analyzed until the entire study of the 312 patients in Example 1 was assembled and analyzed in its entirety. […] The two patient groups were also analyzed post hoc with respect to type of smell loss and etiology of smell loss.

In the case of `Cn1c(=O)c2[nH]cnc2n(C)c1=O` [theophylline], the mean serum theophylline ([1]; oral 200 mg daily) is listed as 4.0±0.2, the mean serum theophylline ([1]; oral 400 mg daily) is listed as 7.4±0.4 and the “therapeutic range for plasma concentrations” value [2] is listed as 10 to 20 mg/L. The “parotid saliva cAMP” value (cAMP; oral 400 mg, patients with improved smell function (12), mean ± SEM) was 1.22 ± 0.33 pmol/mL and the “change of saliva cAMP” value (cAMP; oral 200, 400, 600 mg, unimproved patients) was “essentially no change”.

— patent US12329753B2, “Phosphodiesterase inhibitor treatment” (Cyrano Therapeutics, Inc., priority 2008, dated 2025)
